From a melting point compilation (Tetko et al.)

SMILES	melting point [°C]
O=c1[nH]nnn1-c1ccccc1	188 to 189
CC(C)NC(=O)Nc1ccc(O)c(C(=O)O)c1	192 to 194
Nc1ccc(S(=O)(=O)C(F)(F)F)cc1	94 to 96
O=C(O)CN1C(=O)c2cccnc2C1=O	239 to 241
Cc1cccc(-c2nnc(C(C)Cl)o2)c1 (stereo not given)	< 17
Nc1nc(CN2CCN(c3ccc(F)cc3)CC2)cs1	194 to 196
O=Cc1ccc([N+](=O)[O-])cc1F	84 to 86
O=C1NC2CCCCCCC12 (stereo not given)	64 to 66
CN(C(=O)CCl)C1(c2ccccc2Cl)CCCCC1=O (stereo not given)	110 to 112
COC(=O)C1CCc2cn[nH]c2C1 (stereo not given)	64 to 66
O=C(c1cccc(F)c1)c1cccc(Br)c1	65 to 67
O=C(Nc1ccccn1)c1ccc(O)cc1	176 to 178
NC(=O)c1cncn1-c1ccccc1	182 to 184
COC(=O)C(O)c1cc(Cl)cc(Cl)c1 (stereo not given)	80 to 82
CC(N)(C#N)Cn1cc(Br)cn1 (stereo not given)	60 to 62
Cn1cncc1C(N)=O	178 to 180
COc1ccc(Cn2[nH]ccc2=N)c(OC)c1	76 to 78
Cc1ccc(-c2nc(C)c(C(=O)O)s2)c(C)c1	218 to 220
O=C(O)c1cn(-c2ccccc2)nc1-c1ccccc1	202 to 204
O=C(NC1CCCC1)c1ccc(Cl)nn1	139 to 141
Cc1sc(N)nc1-c1ccc(F)cc1	122 to 124
NC(=NO)c1ccc(Oc2ccc(F)cc2)nc1	194 to 196
NC(=O)c1c(N)sc2c1CCCCC2	195 to 199
O=C1Nc2cc3c(cc2C1=O)OCCCO3	230 to 232
CC(=O)N1CCN(C(=O)CCC(=O)O)CC1	110 to 116

SMILES	melting point [°C]
CC(C)(C)n1cc(C(=O)O)c(-c2ccc(F)cc2F)n1	145 to 147
CC(C)C(NCC(F)(F)F)C(=O)O (stereo not given)	128 to 130
CC1Cc2ccccc2N1Cc1occc1C(=O)O (stereo not given)	186 to 188
Cc1nc(COc2cccc(C(=O)O)c2)cs1	153 to 155
O=C(O)C1CCC(=O)N(Cc2ccccc2)C1 (stereo not given)	154 to 156
Cc1cc(C)c(-c2csc(N)n2)cc1C	252 to 254
CS(=O)(=O)c1cc(C(=O)O)c(Cl)cc1Cl	210 to 212
Cc1n[nH]c(C)c1S(=O)(=O)N1CCOCC1	82 to 83
CN1CCN(C(=O)c2ccccc2N)CC1	74 to 76
CN(C)c1nc(Cl)c(C=O)s1	109 to 111
COc1ncc(F)c(O)n1	195 to 197
CCOC(=O)c1noc(C)n1	32 to 34
Brc1ccc(-c2ncno2)cc1	109 to 111
O=C(O)CCN1C(=O)C(=Cc2ccc(F)cc2)SC1=S	135 to 137
CN(C)S(=O)(=O)c1ccc2[nH]c(CO)nc2c1	232 to 234
Oc1ccc2c(c1)OCCCO2	97 to 99
COc1ccc([N+](=O)[O-])cc1NS(=O)(=O)c1cc(C(=O)O)ccc1Cl	57 to 59
COc1ccc(C)cc1CC(=O)O	131 to 133
NCC1(Nc2ccccc2)CCCCC1	61 to 63
NS(=O)(=O)c1c[nH]c(=O)[nH]c1=O	299 to 301
CC(NC(N)=O)C1CC2CCC1C2 (stereo not given)	167 to 169
O=C(O)c1ccc(-n2cccn2)c(F)c1	235 to 237
CS(=O)(=O)Nc1ccc(S(=O)(=O)Cl)cc1	141 to 143
O=C(O)c1ccc(-c2ccc([N+](=O)[O-])cc2Cl)o1	251 to 253
Cc1c(C(=O)O)nnn1-c1ccc(Br)cc1Cl	163 to 165

SMILES	melting point [°C]
Cc1nc(-c2ccc(F)c(F)c2)sc1C(=O)O	209 to 211
COC(=O)c1ccc(Cl)cc1S(=O)(=O)Cl	63 to 65
Cc1cccc(-c2nc(CC(=O)O)cs2)c1	110 to 112
C=CCNS(=O)(=O)c1ccccc1F	100 to 102
O=C(O)c1csc(-c2ccc(Cl)c(Cl)c2)n1	212 to 214
NS(=O)(=O)c1ccc(OCCC(=O)O)cc1	140 to 142
Cc1ccc(-c2csc(S)n2)cc1	192 to 194
O=c1ccccn1Cc1ccc(Cl)c([N+](=O)[O-])c1	92 to 94
Cc1cc(N)nn1-c1cccc(F)c1	69 to 71
Cc1cc(-c2nnco2)ccc1[N+](=O)[O-]	119 to 121
Cc1c(C(=O)O)sc2[nH]cnc(=S)c12	309 to 311
OC1COc2ccc(Br)cc21 (stereo not given)	79 to 81
COc1ccc(C(=O)CBr)cc1OC	83 to 85
O=C(O)c1ccc(F)c2ccsc12	230 to 232
FC(F)(F)c1ccc(-n2cccn2)nc1	66 to 68
COC(=O)C1(O)CCN(Cc2ccccc2)CC1	75 to 77
CC(C)(C)OC(=O)NCC1CCCCC12NC(=O)NC2=O (stereo not given)	229 to 231
CC(C)Oc1ncccc1O	57 to 59
O=C(O)CCc1c(-c2ccc(F)cc2)[nH]c2ccc(F)cc12	131 to 135
CC(=O)Nc1cccc(N=C=S)c1	154 to 156
[N-]=[N+]=Nc1ccnc(CO)c1	59 to 61
CN(C)Cc1cccc(N)c1	40 to 42
N#Cc1ccc(S)c(F)c1	59 to 61
ON=C1CCC1	82 to 84
NNc1nc(-c2cccnc2)no1	169 to 171

SMILES	melting point [°C]
COc1ccc(S(=O)(=O)NCC(=O)O)cc1OC	173 to 175
O=C(O)c1ccc(Br)cc1Oc1ccc(F)cc1	187 to 189
Cc1ccsc1-c1nnc(S)o1	211 to 213
Cc1cccc(-c2nnc(S)o2)c1	157 to 161
N#Cc1ccc2c(c1)C=CS2(=O)=O	149 to 151
CCOC(C)C(N)=NO (stereo not given)	88 to 90
O=Cc1ccc(N2CCC(O)CC2)o1	103 to 105
CC(c1ccccc1)C(O)C(=O)O (stereo not given)	115 to 117
Cc1ccc2c(C(=O)CC#N)c[nH]c2c1	268 to 270
CN(CC(=O)N1CCCC(C(=O)O)C1)c1ccc(Cl)cn1 (stereo not given)	184 to 186
COc1ccccc1-c1nn(C)cc1C(=O)O	203 to 205
O=C1Nc2cc3c(cc2C1=O)OCCO3	210 to 212
NC(=O)C1(N2CCNCC2)CCCC1	138 to 140
O=C1CC(c2ccccn2)CN1 (stereo not given)	79 to 81
CC(Oc1cc(Cl)cc(Cl)c1)C(=O)O (stereo not given)	142 to 144
Nc1cc(N2CCCC2=O)ccc1Cl	139 to 141
C#CCNC(=O)CC(=O)O	64 to 66
COc1ccc(Cn2[nH]cc(Br)c2=N)cc1	92 to 94
Nc1ccnc2ccncc12	254 to 256
O=C(O)CN1C(=O)CCC1=O	91 to 93
Nc1cnc(Br)c(Br)c1	106 to 108
COc1cccc(Cc2nnc(N)s2)c1	104 to 106
C=CCn1c(S)nc2sc3c(c2c1=O)CCC(C)C3 (stereo not given)	228 to 230
O=C(O)c1cccc(C(=O)N2CCS(=O)(=O)CC2)n1	217 to 219
COc1ccc(C(C)=O)c(OCc2ccccc2)c1	59 to 61

SMILES	melting point [°C]
Nc1ccc(C(=O)O)c(I)c1	160 to 162
ClCc1nnc(-c2ccccc2)o1	90 to 100
CC(C)(C)NS(=O)(=O)CC(=O)O	93 to 95
O=c1[nH]c(-c2cccc(Oc3ccccc3)c2)no1	189 to 191
O=Cc1cnn(C2CCS(=O)(=O)C2)c1 (stereo not given)	111 to 113
COC(=O)c1c(C(=O)CCl)c(C)n(C2CC2)c1C	74 to 78
O=C(O)c1cc(-c2cccs2)n(-c2ccccc2)n1	193 to 195
O=C1CC2(CCCCC2)CC(=O)O1	210 to 214
O=Cc1ccc(-c2ccc(F)cc2)o1	79 to 81
O=C(O)C1(c2cccs2)CCCCC1	146 to 148
O=C(O)c1ccc2nnc(C3CC3)n2c1	290 to 292
O=C(O)c1ccc(Cl)c(Cl)c1O	212 to 214
Cc1oncc1C(=O)Nc1ccc(O)c(C(=O)O)c1	249 to 251
N#CC=C(Cl)c1cccc(OC(F)F)c1	45 to 47
O=C(O)C1CCCSC1 (stereo not given)	76 to 78
Sc1nnc(Nc2ccccc2Cl)s1	174 to 176
Cn1ncnc1COc1ccc(S(N)(=O)=O)cc1	176 to 178
O=Cc1cc(Br)ccc1OCC(=O)O	170 to 172
Cc1cc(Br)cc(C)c1N1CCCC1=O	103 to 105
Nc1ccn(Cc2ccsc2)n1	43 to 45
CCOC(=O)c1c(N)sc2c1CCNC2	121 to 123
Nc1ccc2c(c1)C(=O)N(c1ccc(F)cc1)C2=O	211 to 213
c1cn2c(n1)NCCC2	104 to 106
CNC(=O)c1c[nH]c2ccccc12	203 to 205
Cc1cc(C)nc(-n2nc(C)cc2NC(=O)CCl)n1	185 to 187

SMILES	melting point [°C]
Nc1cccc([N+](=O)[O-])c1C(=O)O	143 to 145
CCOC(=O)C1CN(C(=O)OC(C)(C)C)CCN1 (stereo not given)	55 to 57
Nc1cccc(N2CCCC2=O)c1	106 to 108
NC(=O)COc1ccc(N)cc1	124 to 126
CCNC(=O)NC(=O)C(C)Cl (stereo not given)	126 to 128
O=C(O)c1ccccc1SCc1ccc(Br)cc1	233 to 235
CC(O)c1nc2ccc(Cl)cc2n1C (stereo not given)	149 to 151
O=C(O)CCc1nnc(-c2cccnc2)o1	197 to 199
O=C1CCCc2c1sc1ccccc21	113 to 115
COc1ccc(O)cc1C(C)=O	78 to 80
O=S(=O)(Cl)c1ccc(Cl)c2ncccc12	111 to 113
O=C(O)c1ccccc1NS(=O)(=O)C(F)(F)F	164 to 166
NC1CCN(c2ccccc2)C1=O (stereo not given)	66 to 68
Cc1cccc(N2CCN(c3ccc(C#N)cn3)CC2)c1	121 to 123
Cc1cc(I)ccc1[N+](=O)[O-]	79 to 81
Clc1ccc(-c2cc3ncnc(Cl)c3s2)cc1	188 to 190
O=C(O)C1CC2CCCCC2N1C(=O)c1ccc(F)cc1F (stereo not given)	189 to 191
C#CC#CCCCCCC(=O)O	35 to 37
CNCc1nnn[nH]1	224 to 226
CN(C)S(=O)(=O)c1cn(C)cn1	119 to 121
